For data set [1], the system named is L428 cells. Kind of data set: in vitro. Particulars: for CC50: read-out: LC50, L428 cells, 48 hrs. As to the method:
(§1) The human Hodgkin's Lymphoma derived L428 cell line was used as a model. The cells were grown in RPMI Medium 1640 with 10% FBS, 1% Glutamine and pen-strep (all from Biological Industries, Israel). […] Thirty thousand (30,000) cells/well were placed in 96-well plates with the coumaperine derivatives at different concentrations or with vehicle (DMSO) at a final volume of 200 μl. The plates were incubated for 48 hrs. at 37° C. and 5% CO2 followed by the addition of 50 μl of the XTT reagent tetrazolium-formazan, (Biological Industries, Israel) was added for 2 hrs. at 37° C., 5% CO2. In living cells, mitochondria […] the tetrazolium-formazan salt, thereby generating a color absorbing product at 450 nm. Absorbance was measured at 450 nm and 650 nm in an enzyme-linked immunosorbent assay (ELISA) plate reader (Multiskan Spectrum, Version 1.2), and recorded. Absorption values at 650 nm were subtracted from the blank and the 450 nm values. The results were normalized to the control (treated with DMSO).
(§2) Viability was determined in triplicate in two independent tests. The results were normalized to vehicle (DMSO) treated cells, (100% viability). Mean+SD.

Data set [2] can be described thus: in vitro. Particulars: human, LC50. As to the method:
as §1, §2

For data set [3], the system named is gram-positive and gram-negative bacteria. The data set can be described thus: Antibacterial activity, overall statement (diffusion discs test). The note with it: for Antibacterial: Table 6 summary; for Antibacterial activity, in words: running text. Format: cell-based. The essentials: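 Compounds in acetonitrile at 40 mM, 20 μl dried onto filter paper discs, laid on lawns of B. subtilis, S. aureus, A. baumannii (LB agar) or S. sobrinus, S. mutans (BHI agar) from overnight cultures. Incubated overnight at 37° C; inhibition zone diameter measured.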

For data set [4], the system named is Staphylococcus aureus. Kind of data set: Diffusion discs test, Staphylococcus aureus. Format: cell-based. Set-up: key to Staphylococcus aureus, diameter of growth inhibition: —: no activity. Particulars: discs with 40 mM of compound in 20 μl solvent. How it is done:
(§3) All derivatives were dissolved in acetonitrile to a final concentration of 40 mM. Twenty (20) μl were loaded onto Whatman filter paper discs and dried. Bacillus subtilis, Staphylococcus aureus, and Acinetobacter baumannii were grown in LB (Lenox) O.N. One hundred (100) μl from the starter culture was plated on LB agar (Miller) dishes. Streptococcus sobrinus, and Streptococcus mutans grown in Brain Heary Infusion (BHI, Himedia) O.N. were similarly plated on BHI agar dishes. Discs were laid and incubated O.N. in 37° C. and the diameter of inhibition of bacterial growth was measured.

Data set [5] concerns Agrobacterium tumefaciens (KYC55). The data set can be described thus: Quorum sensing inhibition test with bio-reporter KYC55 (TLC overlay). As to Degree of QSI of KYC55: key: −: no inhibition; +: low inhibition; ++: medium inhibition; +++: strong inhibition. As to Degree of quorum sensing inhibition (QSI), KYC55: key: −: no inhibition; +: low inhibition; ++: medium inhibition; +++: strong inhibition. The format is cell-based. Particulars: for Degree of QSI of KYC55: Table 1, coumaperine derivatives, 40 mM in ~20 μL acetonitrile dried on TLC plate, overnight, color intensity; for QSI activity against KYC55, in words: running text. The essentials:
(§4)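 Compounds (40 mM in acetonitrile, 20 μl) were spotted on TLC and overlaid with soft agar reporter cultures, incubated overnight at 30 °C. CV026 was in LB with 500 nM 3-oxo-C6 (purple pigment), and KYC55 was in AT medium with 5 nM 3-oxo-C8 and 60 μg/ml X-gal (blue). Inhibition zone diameter was measured.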

For data set [6], the system named is NF-kB. The data set can be described thus: NF-kB-luciferase reporter gene assay in L428 cells. Also: key: +: active; −: inactive. The note with it: Table 6 summary. Format: cell-based, human. How it is done: FIG. 7 includes a vertical bar graph showing a dose response of NF-kB activation according to an NF-kB reporter gene luciferase assay. L428 cells were stably transfected with the NF-kB luciferase reporter gene. The cells were incubated with the compounds at different concentrations for 2 hours. […] The results represent the percentage of NF-kB activation as compared to vehicle (DMSO) treated cells. All samples were normalized to protein concentration. Mean+SD, Two-way ANOVA and Tukey's multiple comparison test. 95% confidence interval (p-values *≤0.0332, **≤0.0021, ***≤0.0002).
L428 cells stable transfectants with the luciferase NF-kB-Luc reporter gene were generated previously described (Ozer et al., 2009), and were maintained in 500 μg/ml of G418 (G418 disulfate salt, Sigma-Aldrich). The cells (5×10^5 /well in triplicate) were incubated for 2 hrs. in 1 ml of medium containing the solvent (DMSO) or different concentrations of the molecules tested. Cells were then harvested, lysed, and monitored by a luciferase reporter assay kit (Promega) according to the manufacturer's instructions. Measurements were carried out using a luminometer (Promega, GLOMAX™ 20/20 Luminometer). Data were normalized to the protein concentration in each lysate as measured by the Bradford method (BioRad) and normalized to the control. Experiments were repeated at least three times.
For orientation: In a reporter assay the amount or activity of a reporter protein is the signal.

In data set [7] the test system is quorum sensing (CV026 and KYC55). Kind of data set: Quorum sensing inhibition, overall statement over the bio-reporter bacteria. Format: cell-based. The note with it: for QSI: Table 6 summary. How it is done: TLC preparation: all derivatives were dissolved in 100% acetonitrile to a concentration of 40 mM. Then placed 20 μlon the same spot on the TLC and let the solvent evaporate before use. CV026: few colonies were transferred to liquid LB (Lenox) for overnight incubation at 30° C. in a 45 degree in orbital shaker. At the O.D. 0.8 3 ml of the starter was added to preheated soft LB agar containing 500 nM of 3-oxo-C6 (Sigma-Aldrich). The mixture was then loaded on the TLC in a glass plate for O.N. incubation in 30° C. The next day inhibition zone was measured, while QS is taking place bacteria produce purple pigment, and when QS is inhibited no pigment is produced. KYC55 (pJZ372) (pJZ384) (pJZ410): 20 μl from the frozen stock into 25 ml AT media (AT buffer×20: 1.57 M KH2PO4 pH=7.3. AT salts mix×20: 300 mM (NH4)2SO4, 13 mM MgSO4, 1.4 mM CaCl2, 0.4 mM FeSO4·7H2O, 0.26 mM MnSO4·H2O. AT media: 50 ml×20 AT-buffer, 50 ml×20 AT-salts, 10 ml 50% (w/v) glucose, add 890 ml to final volume of 1 liter.) For O.N. at 30° C. in an orbital shaker. Into preheated water agar with 25 ml AT-buffer, and 60 μg/ml X-gal and 5 nM 3-oxo-c8 (both from Sigma-Aldrich) 25 ml of the starter was added. Then, that mixture was loaded on the TLC in glass plate for O.N. incubation in 30° C. The next day the inhibition zone was measured. The bacteria produce blue pigment during QS and when QS is inhibited no pigment is produced. KYC55 (pJZ372) (pJZ384) (pJZ410) preservation in tetracycline (1 μg/ml), spectinomycin (100 μg/ml), gentamicin (100 μg/ml) (all antibiotics from Sigma Aldrich) in AT media O.N. then centrifuged and suspend in 15% glycerol frozen and maintained at −80° C.
All the synthesized compounds were evaluated for quorum sensing inhibition against two bioreporter bacteria strains, Chromobacterium violaceum (CV026) and Agrobacterium tumefaciens (KYC55) and the results are summarized in Table 1.

For data set [8], the system named is Streptococcus sobrinus. Kind of data set: Diffusion discs test, Streptococcus sobrinus. Format: cell-based. Set-up: key: —: no activity. Particulars: discs with 40 mM of compound in 20 μl solvent. As to the method:
as §3

Data set [9] has as its system Acinetobacter baumannii. Kind of data set: Diffusion discs test, Acinetobacter baumannii. Format: cell-based. Also noted: key: —: no activity. Particulars: discs with 40 mM of compound in 20 μl solvent. As to the method:
as §3

Data set [10] concerns Streptococcus mutans. The data set can be described thus: Diffusion discs test, Streptococcus mutans. Format: cell-based. Also noted: key: —: no activity. Particulars: discs with 40 mM of compound in 20 μl solvent. As to the method:
as §3

Data set [11] concerns Bacillus subtilis. Kind of data set: Diffusion discs test, Bacillus subtilis. Set-up: key: —: no activity. Particulars: discs with 40 mM of compound in 20 μl solvent. Format: cell-based. As to the method: as §3
In data set [12] the test system is PA01. Kind of data set: Diffusion discs test, PA01. The format is cell-based, P. aeruginosa. Also noted: key: —: no activity. Particulars: discs with 40 mM of compound in 20 μl solvent.
In data set [13] the test system is Chromobacterium violaceum (CV026). The data set can be described thus: Quorum sensing inhibition test with bio-reporter CV026 (TLC overlay). As to Degree of QSI of CV026: key: −: no inhibition; +: low inhibition; ++: medium inhibition; +++: strong inhibition. As to Degree of quorum sensing inhibition (QSI), CV026: key: −: no inhibition; +: low inhibition; ++: medium inhibition; +++: strong inhibition. The format is cell-based. Particulars: for Degree of QSI of CV026: Table 1, coumaperine derivatives, 40 mM in ~20 μL acetonitrile dried on TLC plate, overnight, color intensity; for QSI activity against CV026, in words: running text. The essentials:
as §4

[14] abbreviates: Table 2, piperlongumine derivatives.

Structures are written as SMILES. Like-named read-outs stand apart in the source and are kept apart here.

The record followed here is patent US20240109855A1, “ANTI-QUORUM SENSING, ANTI-BIOFILM, AND INFLAMMATION ATTENUATING COMPOUNDS, COMPOSITIONS, AND METHODS OF USING SAME” (priority 2021, published 2024).

On to `O=C(/C=C/C=C/c1ccc(F)cc1)N1CCCCC1` [CP-154, (2E,4E)-5-(4-fluorophenyl)-1-(piperidin-1-yl)penta-2,4-dien-1-one], for which, in data set [1], the Cytotoxic result was “+” and the “Cytotoxic activity, in words” value was “cytotoxic”. Moreover, the CC50 at 48 h in [2] was determined as 46.8 µM. In data set [3], the Antibacterial entry is “+” and the “Antibacterial activity, in words” value is given as “showed antibacterial activity”. For the same compound, in data set [4], the “Staphylococcus aureus, diameter of growth inhibition” value worked out at 11 mm. Moreover, in data set [5], the “Degree of QSI of KYC55” value is listed as “+++” and the “QSI activity against KYC55, in words” value was “highly active”. The Anti-inflammatory entry in [6] is given as “+”. Moreover, the QSI result in data set [7] is listed as “+”. For the same compound, in data set [7] (running text), the “QSI activity overall, in words” value is “anti QS activity”. In addition, the “Streptococcus sobrinus, diameter of growth inhibition” value in [8] was found to be 9 mm. For the same compound, in [9], the “Acinetobacter baumannii, diameter of growth inhibition” value is reported as “—”. Besides, in data set [10], the “Streptococcus mutans, diameter of growth inhibition” value is “—”. Further, in data set [11], the “Bacillus subtilis, diameter of growth inhibition” value is on record as 7 mm. The “PA01, diameter of growth inhibition” value in data set [12] is given as “—”. For the same compound, in data set [13], the “Degree of QSI of CV026” value is reported as “+++” and the “QSI activity against CV026, in words” value is “highly active”.
As for `O=C(/C=C/C(=O)N1CCCCC1)c1ccc(F)c(F)c1` [CP-287, (E)-3-(benzoyl 3,4-difluoro)-1-(piperidin-1-yl)prop-2-en-1-one], in data set [1], the Cytotoxic entry was “+” and the CC50 came out at 284 µM. In addition, the CC50 in [1] (Table 5) was 284 µM. Also, in data set [3], the Antibacterial result is reported as “−” and the “Antibacterial activity, in words” value is given as “showed antibacterial activity”. Further, the “Staphylococcus aureus, diameter of growth inhibition” value in data set [4] is given as “—”. In data set [6], the Anti-inflammatory result is given as “+”. Further, in [7], the QSI result is on record as “+”. In data set [8], the “Streptococcus sobrinus, diameter of growth inhibition” value stood at 9 mm. Moreover, the “Acinetobacter baumannii, diameter of growth inhibition” value in data set [9] is recorded as “—”. For the same compound, in [10], the “Streptococcus mutans, diameter of growth inhibition” value is given as “—”. In addition, the “Bacillus subtilis, diameter of growth inhibition” value in [11] is on record as “—”. For the same compound, the “PA01, diameter of growth inhibition” value in data set [12] is reported as “—”.
In the case of `O=C(/C=C/C1CCCCC1)N1CCCCC1` [CP-295, (E)-cyclohexyl-1-(piperidin-1-yl)prop-2-en-1-one], the CC50 at 48 h in data set [2] worked out at 408 µM. In addition, the “Antibacterial activity, in words” value in data set [3] is “showed antibacterial activity”. Further, the “Staphylococcus aureus, diameter of growth inhibition” value in data set [4] is on record as “—”. Also, in data set [5], the “Degree of QSI of KYC55” value is given as “++” and the “QSI activity against KYC55, in words” value is “moderate activity”. In addition, the “Streptococcus sobrinus, diameter of growth inhibition” value in [8] came to 12 mm. Moreover, the “Acinetobacter baumannii, diameter of growth inhibition” value in data set [9] is reported as “—”. The “Streptococcus mutans, diameter of growth inhibition” value in data set [10] is listed as “—”. In data set [11], the “Bacillus subtilis, diameter of growth inhibition” value is given as “—”. The “PA01, diameter of growth inhibition” value in data set [12] is given as “—”. In data set [13], the “Degree of QSI of CV026” value is recorded as “++” and the “QSI activity against CV026, in words” value is “moderate activity”.
The compound `O=C1C=CCCN1C(=O)/C=C/c1cc(O)c(O)c(O)c1` [PL-25, trihydroxy piperlongumine] returned a CC50 at 48 h in data set [2] of 46.3 µM. Also, the “Antibacterial activity, in words” value in data set [3] is “showed antibacterial activity”. Also, the “Staphylococcus aureus, diameter of growth inhibition” value in data set [4] worked out at 9 mm. For the same compound, the “Degree of quorum sensing inhibition (QSI), KYC55” value in data set [5] (setting [14]) is given as “++”. Moreover, the “QSI activity against KYC55, in words” value in data set [5] is “moderate inhibition”. The “Streptococcus sobrinus, diameter of growth inhibition” value in data set [8] is “—”. Further, in data set [9], the “Acinetobacter baumannii, diameter of growth inhibition” value is given as “—”. Further, in [10], the “Streptococcus mutans, diameter of growth inhibition” value was “—”. In [11], the “Bacillus subtilis, diameter of growth inhibition” value is given as “—”. The “PA01, diameter of growth inhibition” value in data set [12] is “—”. In addition, the “Degree of quorum sensing inhibition (QSI), CV026” value in [13] (setting [14]) was “−”. The “QSI activity against CV026, in words” value in data set [13] is “inactive”.
